In patent publication US20060014643A1, “Combinations of aryloxyphenoxypropionates and safeners and their use for increasing weed control” (BAYER CROPSCIENCE GMBH, priority 2002, published 2006):

How the values were obtained:
Type in all cases: in vivo
Setaria lutescens = test: Post-emergence weed control in spring wheat (field trial); settings: visual scoring 4 weeks after treatment vs untreated, rate g a.i./ha: (A1) 112, (A3) 1680, (B1) 28, mixtures 112 + 28 and 1680 + 28, 300 l water/ha
Protocol: (§1) Spring wheat was grown outdoors on plots under natural outdoor conditions, and seeds of typical harmful plants were laid out. Treatment with a mixture of a (hetero)aryloxyphenoxypropionate herbicide and the safener mefenpyr-diethyl using standard formulations of the active ingredients at an application rate of 300 l water per hectare was carried out after the harmful plants had emerged and the spring wheat was in the growth stage between 3 and 5 leaves for the plants. The effect of the composition was assessed 4 weeks after treatment by scoring visually in comparison with untreated controls.

[1] = test system: Triticum aestivum (spring wheat); test: Phytotoxicity (crop damage) to spring wheat (field trial); settings: spring wheat at 3-5 leaves, visual scoring 4 weeks after treatment, rate g a.i./ha: (A1) 112, (A3) 1680, (B1) 28, mixtures 112 + 28 and 1680 + 28
Protocol: as §1

Alopecurus myosuroides = test: Post-emergence weed control in winter wheat (field trial); settings: visual scoring 112 days after treatment vs untreated, rate g a.i./ha: (A5) 37.3, (B1) 10, (A5)+(B1) 37.3 + 10, 300 l water/ha
Protocol: (§2) Winter wheat was grown outdoors on plots under natural outdoor conditions, and seeds of typical harmful plants were laid out. […] The effect of the composition was assessed 112 days after treatment by scoring visually in comparison with untreated controls.

[2] = test system: Triticum aestivum (winter wheat); test: Phytotoxicity (crop damage) to winter wheat (field trial); settings: winter wheat at 3-5 leaves, visual scoring 112 days after treatment, rate g a.i./ha: (A5) 37.3, (B1) 10, (A5)+(B1) 37.3 + 10
Protocol: as §2

Row | Structure (SMILES) | Weed control (%) of SETLU (Setaria lutescens) | Phytotox (%) of TRZAS [1] | Weed control (%) of ALOMY (Alopecurus myosuroides) | Phytotox (%) of TRZAW [2]
1 | CC(Oc1ccc(Oc2ccc(Cl)cc2Cl)cc1)C(=O)O (racemic) [(A3), (RS)-2-[4-(2,4-dichlorophenoxy)phenoxy]propionic acid] | 45% | 12% | – | –
2 | C#CCOC(=O)[C@@H](C)Oc1ccc(Oc2ncc(Cl)cc2F)cc1 [(A1), prop-2-ynyl (R)-2-[4-(5-chloro-3-fluoropyridin-2-yloxy)phenoxy]propionate] | 68% | 20% | – | –
3 | CCOC(=O)[C@@H](C)Oc1ccc(Oc2nc3ccc(Cl)cc3o2)cc1 [(A5), ethyl (R)-2-[4-(6-chloro-1,3-benzoxazol-2-yloxy)phenoxy]propionate] | – | – | 69% | 10%
4 | CCOC(=O)C1=NN(c2ccc(Cl)cc2Cl)C(C)(C(=O)OCC)C1 (stereo not shown) [(B1), ethyl 1-(2,4-dichlorophenyl)-5-(ethoxycarbonyl)-5-methyl-2-pyrazoline-3-carboxylate] | 0% | 0% | 0% | 0%
